Data as given in patent publication US6287813A, “Antibiotic-based gene regulation system” (Cistronics Cell Technology GmbH, priority 1999, dated 2001).

Target: T1, PIT/PPIR system (Streptomyces coelicolor, UniProt Q9ADN3)
T1 construct: pMF156/pTWIN in CHO cells, PPIR-SEAP or GFP reporter
T1 sequence (Q9ADN3 1-252): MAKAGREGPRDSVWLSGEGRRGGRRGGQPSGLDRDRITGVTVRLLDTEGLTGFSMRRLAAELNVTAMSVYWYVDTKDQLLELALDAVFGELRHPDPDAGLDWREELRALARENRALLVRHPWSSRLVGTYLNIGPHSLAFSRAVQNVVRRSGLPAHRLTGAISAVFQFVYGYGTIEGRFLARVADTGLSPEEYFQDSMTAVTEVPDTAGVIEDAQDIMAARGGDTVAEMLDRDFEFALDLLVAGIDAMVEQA
Assay: Dose-response of PI-dependent SEAP expression in CHO-PIT1-SEAP
Type: cell-based
Settings: 48 h
Method: FIG. 2: Dose-response curve for PI-dependent gene expression. The cell line CHO-PIT1-SEAP was grown for 48 h at different PI concentrations (ng/ml). The relative SEAP production is shown over 5 orders of magnitude of PI concentration.
Chinese hamster ovary cells (CHO-K1, ATCC: CCL 61), Baby hamster kidney cells (BHK-21, ATCC: CRL-8544), and HeLa cells (ATCC: CRL-7923) as well as stable cell lines CHO-PIT1, CHO-PIT2, CHO-TWIN195, CHO-TWIN1108 and CHO-PIT1-SEAP were cultured as described before (Fussenegger et al., 1998, Nat. Biotechnol. 16,468-472) in the presence of appropriate antibiotics: G418 400 μg/ml; zeocin 100 μg/ml. Optimized CaPO4 protocols were used for high efficiency transient transfection of all cell lines (id). Transient transfected cells were routinely analyzed after 48 h for GFP or SEAP expression using fluorescence microscopy and p-nitrophenolphosphate-based light absorbance timecourse, respectively, as described before (Fussenegger et al., 1998, Nat. Biotechnol. 16, 468-472; Berger et al., 1988, Gene 66, 1-10 b). For construction of stable CHO-PIT and CHO-TWIN cell lines, CHO-K1 was cotransfected either with pMF156 or pTWIN1 and pSV2neo carrying the G418 resistance gene. CHO-PIT1-SEAP was constructed by cotransfection of pMF172 and pZeoSV2 (Invitrogen). For assessment of dose-response characteristics of PPIR -regulated gene expression, CHO-PIT1-SEAP were cultured at cell densities of 150,000/ml for 48 at various PI concentrations. The mixed populations were cloned using FACS-mediated single-cell-sorting (FACStar^Plus; Beckton Dickinson). Gel retardation assay were performed as described (Salah-Bey et al., 1995, supra) using Pip purified from an overproducing strain of E. coli. Pip (0.02 pmol) was titrated with a range of antibiotic concentrations in a reaction volume of 20 μl. […]
The levels of PPIR -regulated gene expression could be controlled by varying the concentrations of PI used for induction. This was assessed using a stable CHO cell line (CHO-PIT1-SEAP) which expresses PPIR -SEAP (pMF172) and contains also a constitutive PIT expression vector (pMF156). […]

Substance: pristinamycin I [PI]
- PI concentration at which PIT/PPIR is fully induced: < 10 ng/mL
- PI concentration at which PIT/PPIR is repressed (lowest SEAP expression): > 500 ng/mL
- PI concentration window in which gene expression can be adjusted: 10 to 500 ng/mL
